Laboratory results from ChEMBL document CHEMBL1909046, “DrugMatrix in vitro pharmacology data”.

Key:
[1] = biological target: T1, Type-2 angiotensin II receptor (Homo sapiens, UniProt P50052); type: cell-based; conditions: cho-k1; note: in other assays of this panel Not Active means under 50% inhibition at 10 µM
T1 sequence (P50052 whole entry): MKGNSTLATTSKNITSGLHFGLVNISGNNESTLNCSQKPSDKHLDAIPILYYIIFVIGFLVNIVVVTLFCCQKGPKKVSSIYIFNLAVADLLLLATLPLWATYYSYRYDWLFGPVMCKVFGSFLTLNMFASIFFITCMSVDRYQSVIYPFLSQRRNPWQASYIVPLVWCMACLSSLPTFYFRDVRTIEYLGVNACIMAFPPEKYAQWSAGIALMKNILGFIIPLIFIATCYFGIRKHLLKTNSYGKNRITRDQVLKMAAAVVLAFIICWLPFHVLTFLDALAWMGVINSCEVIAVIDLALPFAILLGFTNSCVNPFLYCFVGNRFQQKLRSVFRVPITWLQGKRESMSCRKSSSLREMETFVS

[2] = DRUGMATRIX: Calcium Channel Type L, Dihydropyridine radioligand binding (ligand: [3H] Nitrendipine); type: cell membranes, Rattus norvegicus, Wistar, Cerebral cortex, Membrane; conditions: Not Active = under 50% inhibition at 10 µM
Cannabinoid receptor 1 = Cannabinoid receptor 1 (Homo sapiens, UniProt P21554); type: cell membranes, Membrane; conditions: chem-1; note: in other assays of this panel Not Active means under 50% inhibition at 10 µM
Chain of Cannabinoid receptor 1 (P21554 whole entry): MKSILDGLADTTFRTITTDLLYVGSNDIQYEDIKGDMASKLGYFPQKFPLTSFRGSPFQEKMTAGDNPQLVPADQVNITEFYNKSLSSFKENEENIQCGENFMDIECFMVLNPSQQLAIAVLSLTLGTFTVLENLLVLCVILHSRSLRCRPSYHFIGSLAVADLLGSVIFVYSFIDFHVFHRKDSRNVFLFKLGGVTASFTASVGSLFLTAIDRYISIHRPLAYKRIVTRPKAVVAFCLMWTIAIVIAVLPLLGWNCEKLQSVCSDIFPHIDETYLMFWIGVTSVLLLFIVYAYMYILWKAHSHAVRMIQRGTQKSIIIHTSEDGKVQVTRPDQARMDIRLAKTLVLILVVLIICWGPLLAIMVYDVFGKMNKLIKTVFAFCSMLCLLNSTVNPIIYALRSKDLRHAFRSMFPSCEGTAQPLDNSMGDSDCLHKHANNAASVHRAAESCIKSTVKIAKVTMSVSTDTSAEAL

D(3) dopamine receptor = D(3) dopamine receptor (Homo sapiens, UniProt P35462); assay: DRUGMATRIX: Dopamine D3 radioligand binding (ligand: [3H] Spiperone); type: cell membranes, CHO, Membrane; conditions: cho
Chain of D(3) dopamine receptor (P35462 whole entry): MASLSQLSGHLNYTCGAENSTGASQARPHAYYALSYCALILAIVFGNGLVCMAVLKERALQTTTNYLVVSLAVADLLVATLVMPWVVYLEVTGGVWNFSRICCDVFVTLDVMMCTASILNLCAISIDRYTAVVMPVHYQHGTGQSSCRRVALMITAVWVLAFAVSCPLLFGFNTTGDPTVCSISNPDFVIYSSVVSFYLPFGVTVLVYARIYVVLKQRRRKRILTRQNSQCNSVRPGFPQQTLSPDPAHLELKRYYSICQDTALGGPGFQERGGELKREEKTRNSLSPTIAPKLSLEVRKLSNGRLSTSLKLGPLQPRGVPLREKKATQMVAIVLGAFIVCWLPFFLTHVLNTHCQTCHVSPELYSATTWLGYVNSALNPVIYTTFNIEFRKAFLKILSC

Glycine receptor = Glycine receptor (Rattus norvegicus, UniProt P22771+P24524+P07727+P20781); type: cell membranes, Wistar, Spinal cord, Membrane; note: in other assays of this panel Not Active means under 50% inhibition at 10 µM
[3] = DRUGMATRIX: Leukotriene, BLT (LTB4) radioligand binding (ligand: [3H]LTB4); type: cell membranes, Membrane; conditions: u-937; Not Active = under 50% inhibition at 10 µM
[4] = biological target: T2, Polyunsaturated fatty acid lipoxygenase ALOX15 (Oryctolagus cuniculus, UniProt P12530); assay: biochemical; type: tissue-based, Reticulocytes; conditions: reticulocytes;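 note: inhibition of 15-lipoxygenase enzyme activity measured with linoleic acid as the substrate; in other assays of this panel Not Active means under 50% inhibition at 10 µM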
T2 sequence (P12530 whole entry): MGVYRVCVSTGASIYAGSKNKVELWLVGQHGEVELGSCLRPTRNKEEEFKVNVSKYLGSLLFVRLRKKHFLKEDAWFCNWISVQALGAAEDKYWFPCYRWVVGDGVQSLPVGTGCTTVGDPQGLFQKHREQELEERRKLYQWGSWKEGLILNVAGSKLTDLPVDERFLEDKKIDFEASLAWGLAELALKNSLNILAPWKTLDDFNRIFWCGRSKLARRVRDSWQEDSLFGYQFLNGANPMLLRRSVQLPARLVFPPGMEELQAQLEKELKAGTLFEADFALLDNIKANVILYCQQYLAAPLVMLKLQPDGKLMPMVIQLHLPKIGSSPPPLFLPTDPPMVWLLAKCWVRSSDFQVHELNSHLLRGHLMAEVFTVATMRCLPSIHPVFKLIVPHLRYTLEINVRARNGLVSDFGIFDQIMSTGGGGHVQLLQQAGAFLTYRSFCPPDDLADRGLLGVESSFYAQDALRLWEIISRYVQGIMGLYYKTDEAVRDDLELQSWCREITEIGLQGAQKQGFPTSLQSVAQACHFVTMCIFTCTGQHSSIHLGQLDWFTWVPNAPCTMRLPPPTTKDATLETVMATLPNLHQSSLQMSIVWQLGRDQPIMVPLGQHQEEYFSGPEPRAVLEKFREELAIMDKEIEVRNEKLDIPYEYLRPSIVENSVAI

Melanocortin receptor 4 = Melanocortin receptor 4 (Homo sapiens, UniProt P32245); type: cell membranes, Membrane; conditions: hek293; note: in other assays of this panel Not Active means under 50% inhibition at 10 µM
Chain of Melanocortin receptor 4 (P32245 whole entry): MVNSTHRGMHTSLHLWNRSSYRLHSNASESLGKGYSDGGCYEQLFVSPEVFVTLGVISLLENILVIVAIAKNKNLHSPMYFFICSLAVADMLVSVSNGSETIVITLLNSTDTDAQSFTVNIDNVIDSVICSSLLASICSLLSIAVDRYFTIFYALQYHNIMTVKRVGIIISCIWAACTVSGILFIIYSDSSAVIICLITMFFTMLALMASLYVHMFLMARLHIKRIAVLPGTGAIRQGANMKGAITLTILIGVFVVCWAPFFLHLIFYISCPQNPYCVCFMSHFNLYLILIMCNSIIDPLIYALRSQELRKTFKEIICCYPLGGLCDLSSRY

[5] = biological target: T3, Nitric oxide synthase, inducible (Mus musculus, UniProt P29477); set-up: species or system Escherichia coli
T3 sequence (P29477 whole entry): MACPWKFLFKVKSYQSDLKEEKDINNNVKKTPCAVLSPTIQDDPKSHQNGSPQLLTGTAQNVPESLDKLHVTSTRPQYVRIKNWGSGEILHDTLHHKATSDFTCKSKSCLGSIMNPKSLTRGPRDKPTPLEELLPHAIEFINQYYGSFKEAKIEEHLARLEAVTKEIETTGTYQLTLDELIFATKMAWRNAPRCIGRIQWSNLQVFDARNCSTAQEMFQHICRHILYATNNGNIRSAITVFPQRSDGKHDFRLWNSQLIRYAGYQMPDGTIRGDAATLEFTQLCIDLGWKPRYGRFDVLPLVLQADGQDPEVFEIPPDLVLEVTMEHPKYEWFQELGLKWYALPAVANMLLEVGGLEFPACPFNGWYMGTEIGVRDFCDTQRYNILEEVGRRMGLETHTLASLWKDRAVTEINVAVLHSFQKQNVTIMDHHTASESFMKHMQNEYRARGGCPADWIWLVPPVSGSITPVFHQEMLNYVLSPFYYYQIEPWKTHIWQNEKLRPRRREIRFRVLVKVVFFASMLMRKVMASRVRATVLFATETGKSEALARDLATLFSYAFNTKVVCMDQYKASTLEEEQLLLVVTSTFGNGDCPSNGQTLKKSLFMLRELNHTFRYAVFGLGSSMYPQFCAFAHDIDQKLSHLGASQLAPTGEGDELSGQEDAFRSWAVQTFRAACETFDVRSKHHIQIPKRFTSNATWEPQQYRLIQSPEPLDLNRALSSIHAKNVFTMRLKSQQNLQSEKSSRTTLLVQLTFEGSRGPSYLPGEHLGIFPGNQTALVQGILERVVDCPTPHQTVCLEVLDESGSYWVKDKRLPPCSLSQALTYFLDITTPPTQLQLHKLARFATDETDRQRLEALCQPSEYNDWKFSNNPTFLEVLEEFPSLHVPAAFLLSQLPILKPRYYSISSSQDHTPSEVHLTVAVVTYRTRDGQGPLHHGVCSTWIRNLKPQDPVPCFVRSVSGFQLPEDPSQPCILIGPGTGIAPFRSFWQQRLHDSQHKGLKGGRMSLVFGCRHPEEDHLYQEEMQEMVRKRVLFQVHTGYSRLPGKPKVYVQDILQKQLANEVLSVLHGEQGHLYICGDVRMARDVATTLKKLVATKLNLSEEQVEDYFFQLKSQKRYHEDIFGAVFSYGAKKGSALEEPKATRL

[6] = biological target: Mitogen-activated protein kinase 14 (Homo sapiens, UniProt Q16539); set-up: species or system Escherichia coli
Chain of Mitogen-activated protein kinase 14 (Q16539 whole entry): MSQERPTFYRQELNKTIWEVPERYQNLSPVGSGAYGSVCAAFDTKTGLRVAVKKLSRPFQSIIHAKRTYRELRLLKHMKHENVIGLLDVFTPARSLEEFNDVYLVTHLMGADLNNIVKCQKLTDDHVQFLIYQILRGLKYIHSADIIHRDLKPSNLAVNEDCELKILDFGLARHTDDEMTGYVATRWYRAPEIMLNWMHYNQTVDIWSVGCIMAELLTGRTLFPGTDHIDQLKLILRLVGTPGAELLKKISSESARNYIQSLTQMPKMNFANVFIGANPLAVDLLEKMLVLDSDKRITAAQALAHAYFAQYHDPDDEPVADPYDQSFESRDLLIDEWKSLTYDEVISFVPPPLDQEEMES

[7] = biological target: Tyrosine-protein kinase Lck (Homo sapiens, UniProt P06239); assay: DRUGMATRIX: Protein Tyrosine Kinase, LCK enzyme inhibition (substrate: Poly(Glu:Tyr)); type: cell-based, Insect cells; conditions: insect cells; Not Active = under 50% inhibition at 10 µM
Chain of Tyrosine-protein kinase Lck (P06239 whole entry): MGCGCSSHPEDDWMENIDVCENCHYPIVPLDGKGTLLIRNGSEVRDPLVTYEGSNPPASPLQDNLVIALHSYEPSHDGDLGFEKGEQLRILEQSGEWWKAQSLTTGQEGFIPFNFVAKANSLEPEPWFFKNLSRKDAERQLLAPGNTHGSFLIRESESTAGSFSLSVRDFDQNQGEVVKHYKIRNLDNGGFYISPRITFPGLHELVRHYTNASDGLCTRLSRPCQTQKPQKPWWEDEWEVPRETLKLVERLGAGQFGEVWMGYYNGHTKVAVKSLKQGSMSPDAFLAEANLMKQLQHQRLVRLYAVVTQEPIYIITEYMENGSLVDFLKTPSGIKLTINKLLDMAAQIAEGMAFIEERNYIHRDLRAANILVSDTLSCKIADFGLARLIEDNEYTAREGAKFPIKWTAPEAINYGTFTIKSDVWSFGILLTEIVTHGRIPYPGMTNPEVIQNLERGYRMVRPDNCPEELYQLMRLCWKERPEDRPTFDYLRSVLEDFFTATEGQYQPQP

Cytochrome P450 2E1 = Cytochrome P450 2E1 (Homo sapiens, UniProt P05181); conditions: bti-tn-5b1-4; note: in other assays of this panel Not Active means under 50% inhibition at 10 µM
Chain of Cytochrome P450 2E1 (P05181 whole entry): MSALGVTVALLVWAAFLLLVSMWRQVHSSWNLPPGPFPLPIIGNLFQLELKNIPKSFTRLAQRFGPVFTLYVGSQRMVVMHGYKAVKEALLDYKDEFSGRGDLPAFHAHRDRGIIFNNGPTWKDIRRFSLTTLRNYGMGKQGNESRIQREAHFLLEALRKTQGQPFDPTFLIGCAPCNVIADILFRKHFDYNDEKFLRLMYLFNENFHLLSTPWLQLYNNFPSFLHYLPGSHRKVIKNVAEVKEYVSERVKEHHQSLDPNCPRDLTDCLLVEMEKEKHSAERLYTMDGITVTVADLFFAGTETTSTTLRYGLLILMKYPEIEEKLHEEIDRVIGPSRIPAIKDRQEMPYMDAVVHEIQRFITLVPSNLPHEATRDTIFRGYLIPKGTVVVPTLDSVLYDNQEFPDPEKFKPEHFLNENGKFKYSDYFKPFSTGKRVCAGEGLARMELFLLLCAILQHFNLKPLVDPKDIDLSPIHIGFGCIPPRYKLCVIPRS

CCCCCCCCCc1ccc(O)cc1 [4-NONYLPHENOL]
Not Active: IC50 [1] | IC50 [2] | Ki [2] | IC50 (Cannabinoid receptor 1) | IC50 (D(3) dopamine receptor) | IC50 (Glycine receptor) | IC50 [3] | Ki [3] | IC50 [4] | IC50 (Melanocortin receptor 4) | IC50 [5] | IC50 [6] | IC50 [7] | IC50 (Cytochrome P450 2E1) | Ki (Cytochrome P450 2E1)

COc1ccc2c(c1)c(CC(=O)OCC(=O)O)c(C)n2C(=O)c1ccc(Cl)cc1 [ACEMETACIN]
Not Active: IC50 [1] | IC50 [2] | Ki [2] | IC50 (Cannabinoid receptor 1) | IC50 (D(3) dopamine receptor) | IC50 (Glycine receptor) | IC50 [3] | Ki [3] | IC50 [4] | IC50 (Melanocortin receptor 4) | IC50 [5] | IC50 [6] | IC50 [7] | IC50 (Cytochrome P450 2E1) | Ki (Cytochrome P450 2E1)

CCCSc1ccc2nc(NC(=O)OC)[nH]c2c1 [ALBENDAZOLE]
Not Active: IC50 [1] | IC50 [2] | Ki [2] | IC50 (Cannabinoid receptor 1) | IC50 (D(3) dopamine receptor) | IC50 (Glycine receptor) | IC50 [3] | Ki [3] | IC50 [4] | IC50 (Melanocortin receptor 4) | IC50 [5] | IC50 [6] | IC50 [7] | IC50 (Cytochrome P450 2E1) | Ki (Cytochrome P450 2E1)

Cc1[nH]cnc1CN1CCc2c(c3ccccc3n2C)C1=O [ALOSETRON]
Not Active: IC50 [1] | IC50 [2] | Ki [2] | IC50 (Cannabinoid receptor 1) | IC50 (D(3) dopamine receptor) | IC50 (Glycine receptor) | IC50 [3] | Ki [3] | IC50 [4] | IC50 (Melanocortin receptor 4) | IC50 [5] | IC50 [6] | IC50 [7] | IC50 (Cytochrome P450 2E1) | Ki (Cytochrome P450 2E1)

O=c1cc(-c2ccccc2)oc2c1ccc1ccccc12 [ALPHA-NAPHTHOFLAVONE]
Not Active: IC50 [1] | IC50 [2] | Ki [2] | IC50 (Cannabinoid receptor 1) | IC50 (D(3) dopamine receptor) | IC50 (Glycine receptor) | IC50 [3] | Ki [3] | IC50 [4] | IC50 (Melanocortin receptor 4) | IC50 [5] | IC50 [6] | IC50 [7] | IC50 (Cytochrome P450 2E1) | Ki (Cytochrome P450 2E1)

NCC[C@H](O)C(=O)N[C@@H]1C[C@H](N)[C@@H](O[C@H]2O[C@H](CN)[C@@H](O)[C@H](O)[C@H]2O)[C@H](O)[C@H]1O[C@H]1O[C@H](CO)[C@@H](O)[C@H](N)[C@H]1O [AMIKACIN]
Not Active: IC50 [1] | IC50 [2] | Ki [2] | IC50 (Cannabinoid receptor 1) | IC50 (D(3) dopamine receptor) | IC50 (Glycine receptor) | IC50 [3] | Ki [3] | IC50 [4] | IC50 (Melanocortin receptor 4) | IC50 [5] | IC50 [6] | IC50 [7] | IC50 (Cytochrome P450 2E1) | Ki (Cytochrome P450 2E1)

CC1(C)S[C@@H]2[C@H](NC(=O)[C@H](N)c3ccc(O)cc3)C(=O)N2[C@H]1C(=O)O [AMOXICILLIN]
Not Active: IC50 [1] | IC50 [2] | Ki [2] | IC50 (Cannabinoid receptor 1) | IC50 (D(3) dopamine receptor) | IC50 (Glycine receptor) | IC50 [3] | Ki [3] | IC50 [4] | IC50 (Melanocortin receptor 4) | IC50 [5] | IC50 [6] | IC50 [7] | IC50 (Cytochrome P450 2E1) | Ki (Cytochrome P450 2E1)

CCOC(=O)OC(C)OC1=C(C(=O)Nc2ccccn2)N(C)S(=O)(=O)c2ccccc21 (stereo not given) [AMPIROXICAM]
Not Active: IC50 [1] | IC50 [2] | Ki [2] | IC50 (Cannabinoid receptor 1) | IC50 (D(3) dopamine receptor) | IC50 (Glycine receptor) | IC50 [3] | Ki [3] | IC50 [4] | IC50 (Melanocortin receptor 4) | IC50 [5] | IC50 [6] | IC50 [7] | IC50 (Cytochrome P450 2E1) | Ki (Cytochrome P450 2E1)

N#C[C@H](O[C@@H]1O[C@H](CO[C@@H]2O[C@H](CO)[C@@H](O)[C@H](O)[C@H]2O)[C@@H](O)[C@H](O)[C@H]1O)c1ccccc1 [AMYGDALIN]
Not Active: IC50 [1] | IC50 [2] | Ki [2] | IC50 (Cannabinoid receptor 1) | IC50 (D(3) dopamine receptor) | IC50 (Glycine receptor) | IC50 [3] | Ki [3] | IC50 [4] | IC50 (Melanocortin receptor 4) | IC50 [5] | IC50 [6] | IC50 [7] | IC50 (Cytochrome P450 2E1) | Ki (Cytochrome P450 2E1)
